Some results are limits rather than exact numbers.

The term Ki denotes a dissociation constant, usually derived from enzyme kinetics or from competition with a known ligand. Low readings indicate tighter binding, high ones weaker binding.

The first assay deals with HIV-1 protease (Human immunodeficiency virus type 1 group M subtype B, UniProt P04585). In words: inhibition constants against HIV-1 protease (method of Pennington et al.). The assay is classed as biochemical.
Details: not given
An excerpt: We have measured the inhibition constants of each compound against HIV-1 protease using the method described essentially by M. W. Pennington et al., Peptides 1990, Gimet, E. and D. Andrew, Eds., Escom, Leiden, Netherlands (1990); and the method described essentially by Partaledis et al., J. Virol., 69, pp. 5228-35 (1995).
Using the method described by Pennington et al. (supra), we obtained inhibition constants for the following compounds of this invention: […]
`COc1ccc(S(=O)(=O)N(CC(O)CN2C(=O)CC[C@@H]2Cc2ccccc2)CC2CCCC2)cc1` (single isomer, unassigned) [Compound 15]: the Ki came to 550 nM. Still for that read-out and setting: in the case of `C=CCN1C[C@H](Cc2ccccc2)N(C[C@H](O)CN(CC2CCCC2)S(=O)(=O)c2ccc(OC)cc2)C1=O` [Compound 1] it was 160 nM; in that of `C=CCC1C[C@H](Cc2ccccc2)N(C[C@H](O)CN(CC2CCCC2)S(=O)(=O)c2ccc(OC)cc2)C1=O` (stereo partly shown) [Compound 7], 9 nM.

In the case of `COc1ccc(S(=O)(=O)N(CC(O)CN2[C@@H](Cc3ccccc3)CN(C)S2(=O)=O)CC2CCCC2)cc1` (stereo partly shown) [Compound 10], the Ki is more than 10000 nM.

`COc1ccc(S(=O)(=O)N(CC(O)CN2[C@@H](Cc3ccccc3)CCS2(=O)=O)CC2CCCC2)cc1` (stereo partly shown) [Compound 11] displayed a Ki of more than 10000 nM. `CC(C)CN1CC(Cc2ccccc2)N(CC(O)CN(CC2CCCC2)S(=O)(=O)c2cccc(N)c2)C1=O` (stereo not shown) [Compound 12] displayed a Ki of more than 10000 nM. `COc1ccc(S(=O)(=O)N(CC(O)CN2C(=O)N(C)C[C@@H]2Cc2ccccc2)CC2CCCC2)cc1` (stereo partly shown) [Compound 13] showed a Ki of 225 nM. Regarding `COc1ccc(S(=O)(=O)N(CC(O)CN2C(=O)N(Cc3ccccc3)C[C@@H]2Cc2ccccc2)CC2CCCC2)cc1` (stereo partly shown) [Compound 14], the Ki is 16 nM. Take `COc1ccc(S(=O)(=O)N(CC2CCCC2)C[C@@H](O)CN2C(=O)C(C)C[C@@H]2Cc2ccccc2)cc1` (stereo partly shown) [Compound 16]: the Ki was found to be 56 nM. The compound `COc1ccc(S(=O)(=O)N(CC(O)CN2C(=O)C(C)(C)C[C@@H]2Cc2ccccc2)CC2CCCC2)cc1` (stereo partly shown) [Compound 17] yielded a Ki of 115 nM. Still for that read-out and setting: under `CCC1C[C@H](Cc2ccccc2)N(CC(O)CN(CC2CCCC2)S(=O)(=O)c2ccc(OC)cc2)C1=O` (stereo partly shown) [Compound 18] stands 15 nM; under `COc1ccc(S(=O)(=O)N(CC(O)CN2C(=O)CC(O)[C@@H]2Cc2ccccc2)CC2CCCC2)cc1` (stereo partly shown) [Compound 19], 3000 nM; under `COc1ccc(S(=O)(=O)N(CC2CCCC2)C[C@@H](O)CN2C(=O)C(Cc3ccccc3)C[C@@H]2Cc2ccccc2)cc1` (stereo partly shown) [Compound 20], 1.5 nM. `COc1ccc(S(=O)(=O)N(CC(O)CN2C(=O)C(N)C[C@@H]2Cc2ccccc2)CC2CCCC2)cc1` (stereo partly shown) [Compound 21] showed a Ki of more than 20000 nM.

On to `COc1ccc(S(=O)(=O)N(CC(O)CN2C(=O)C(NC(C)=O)C[C@@H]2Cc2ccccc2)CC2CCCC2)cc1` (stereo partly shown) [Compound 22], for which the Ki was found to be 600 nM.

As to `COc1ccc(S(=O)(=O)N(CC(O)CN2C(=O)C(CC(O)CO)C[C@@H]2Cc2ccccc2)CC2CCCC2)cc1` (stereo partly shown) [Compound 23], the Ki was found to be 70 nM. For the compound `COc1ccc(S(=O)(=O)N(CC(O)CN2C(=O)C(CC3COCO3)C[C@@H]2Cc2ccccc2)CC2CCCC2)cc1` (stereo partly shown) [Compound 24], the Ki worked out at 350 nM. In turn, `COc1ccc(S(=O)(=O)N(CC(O)CN2C(=O)C(CC(COC(C)=O)OC(C)=O)C[C@@H]2Cc2ccccc2)CC2CCCC2)cc1` (stereo partly shown) [Compound 25] had a Ki of 83 nM. With `COc1ccc(S(=O)(=O)N(CC(O)CN2C(=O)C(CC3COC(=O)O3)C[C@@H]2Cc2ccccc2)CC2CCCC2)cc1` (stereo partly shown) [Compound 26], affinity was put at a Ki of 58 nM. As to `COc1ccc(S(=O)(=O)N(CC(O)CN2C(=O)CNC[C@@H]2Cc2ccccc2)CC2CCCC2)cc1` (stereo partly shown) [Compound 27], the Ki turned out to be 3000 nM. As to `COc1ccc(S(=O)(=O)N(CC(O)CN2C(=O)COC[C@@H]2Cc2ccccc2)CC2CCCC2)cc1` (stereo partly shown) [Compound 28], the Ki amounted to 1400 nM. The same measure, in the same setting: under `COc1ccc(S(=O)(=O)N(CC(O)CN2C(=O)[C@H](C)NC[C@@H]2Cc2ccccc2)CC2CCCC2)cc1` (stereo partly shown) [Compound 30] stands more than 15000 nM. `COc1ccc(S(=O)(=O)N(CC(O)CN2C(=O)C(C)(C)NC[C@@H]2Cc2ccccc2)CC2CCCC2)cc1` (stereo partly shown) [Compound 31] gave a Ki of 390 nM.

In the case of `COc1ccc(S(=O)(=O)N(CC(O)CN2C(=O)C3(CCCC3)NC[C@@H]2Cc2ccccc2)CC2CCCC2)cc1` (stereo partly shown) [Compound 32], the Ki is 160 nM.

In turn, `COC(=O)C1NC[C@H](Cc2ccccc2)N(CC(O)CN(CC2CCCC2)S(=O)(=O)c2ccc(OC)cc2)C1=O` (stereo partly shown) [Compound 33] yielded a Ki of 1100 nM.

`COC(=O)C1(C)NC[C@H](Cc2ccccc2)N(CC(O)CN(CC2CCCC2)S(=O)(=O)c2ccc(OC)cc2)C1=O` (stereo partly shown) [Compound 34] came in with a Ki of 950 nM. `COc1ccc(S(=O)(=O)N(CC2CCCC2)C[C@@H](O)CN2C(=O)C3(CCCCC3)OC[C@@H]2Cc2ccccc2)cc1` [Compound 47] came in with an inhibition constant Ki of 20 nM.

The assay is the same for the next values; noted with them: Inhibition constant measured at pH 6.0.
Compound `C=CCN1C[C@H](Cc2ccccc2)N(CC(O)CN2C[C@H]3CCCC[C@H]3CC2C(=O)NC(C)(C)C)C1=O` (stereo partly shown) [Compound 2] came in with a Ki of 180 nM. Compound `C=CCN1C[C@H](Cc2ccccc2)N(CC(O)CN2CCN(Cc3cccnc3)CC2C(=O)NC(C)(C)C)C1=O` (stereo partly shown) [Compound 3] gave a Ki of 1800 nM.

`CC(C)(C)NC(=O)C1C[C@@H]2CCCC[C@@H]2CN1CC(O)CN1C(=O)C(C)(C)NC[C@@H]1Cc1ccccc1` (stereo partly shown) [Compound 5] had a Ki of more than 10000 nM. Still for that read-out and setting: in the case of `C=CCC1C[C@H](Cc2ccccc2)N(CC(O)CN2C[C@H]3CCCC[C@H]3CC2C(=O)NC(C)(C)C)C1=O` (stereo partly shown) [Compound 8] it was 5 nM; in that of `C=CCC1C[C@H](Cc2ccccc2)N(CC(O)CN2CCN(Cc3cccnc3)CC2C(=O)NC(C)(C)C)C1=O` (stereo partly shown) [Compound 9], 90 nM; in that of `CC(C)(C)NC(=O)C1C[C@@H]2CCCC[C@@H]2CN1CC(O)CN1C(=O)N(Cc2ccccc2)C[C@@H]1Cc1ccccc1` (stereo partly shown) [Compound 76], 250 nM. Turning to `CC(C)(C)NC(=O)C1C[C@@H]2CCCC[C@@H]2CN1CC(O)CN1[C@@H](Cc2ccccc2)CN(Cc2ccccc2)S1(=O)=O` (stereo partly shown) [Compound 77], the Ki was 560 nM. The same measure, in the same setting: in the case of `C=CCN1CC(Cc2ccccc2)N(CC(O)CC(Cc2ccccc2)C(=O)NC2c3ccccc3CC2O)C1=O` (stereo not shown) [Compound 78] it was 10 nM; in that of `CC(C)(C)NC(=O)C1CSCN1C(=O)C(O)CN1C(=O)C(Cc2ccccc2)CC1Cc1ccccc1` (stereo not shown) [Compound 102], 1200 nM. For the compound `CC(C)(C)NC(=O)C1CSCN1C(=O)C(=O)CN1C(=O)C(C)(C)NC[C@@H]1Cc1ccccc1` (stereo partly shown) [Compound 105], the Ki was more than 10000 nM. On the same count and under the same terms, in the case of `CC(C)(C)NC(=O)C1CSCN1C(=O)C(=O)CN1C(=O)C(Cc2ccccc2)CC1Cc1ccccc1` (stereo not shown) [Compound 109] it was 250 nM. The compound `CC(C)(C)NC(=O)C1CSCN1C(=O)C(=O)CN1C(=O)CCC1Cc1ccccc1` (stereo not shown) [Compound 111] registered a Ki of more than 10000 nM. Still for that read-out and setting: in the case of `CCCC1CC(Cc2ccccc2)N(CC(=O)C(=O)N2CSCC2C(=O)NC(C)(C)C)C1=O` (stereo not shown) [Compound 112] it was 8600 nM.
